# Measurements published in patent US20070270350A1, “Methods and Compositions for the Prevention and Treatment of Inflammatory Diseases or Conditions” (MUSC FOUNDATION FOR RESEARCH DEVELOPMENT, priority 2003, published 2007).
# Tests used:
# ERK1/2 = ERK1/2 phosphorylation by immunoblot after LPS/IFN; format: cell-based, rat; settings: exogenous LacCer with D-PDMP
# Protocol: (§1) Western Blot Analysis. For iNOS protein, the cells were washed with cold Tris buffered saline (TBS; 20 mM Trizma base, and 137 mM NaCl, pH 7.5), lysed in 1×SDS sample loading buffer (62.5 mM Trizma base, 2% w/v SDS, 10% glycerol), following sonication and centrifugation at 1,5000×g for 5 min, the supernatant was used for the iNOS western immunoblot assay. The protein concentration of samples was determined with the detergent compatible protein assay reagent (Bio-Rad Laboratories, CA) using bovine serum albumin (BSA) as the standard. Sample was boiled for 3 min with 0.1 volumes of 10% O-mercaptoethanol and 0.5% bromophenol blue mix. Fifty μg of total cellular protein was resolved by electrophoresis in 8 or 12% polyacrylamide gels, electro-transferred to polyvinylidene difluoride (PVDF) filter and blocked with Tween 20 containing Tris-buffered saline [TBST; 10 mM Trizma base (pH 7.4), 1% Tween 20, and 150 mM NaCl] with 5% skim milk. After incubation with antiserum against iNOS (BD PharMingen, CA), or hRas (Upstate Biotechnology, CA), or phospho-specific MAPK (p42/44) (Signal Transduction), in PVDF buffer for 2 h at room temperature, the filters were washed 3 times with TBST buffer and then incubated with horseradish peroxidase conjugated anti-rabbit or mouse IgG for 1 h. The membranes were autoradiographed by using ECL-plus (Amersham Pharmacia Biotech) after washing with TBST buffer.
# NF-κB = NF-κB reporter, gel shift and IκB phosphorylation after LPS/IFN; format: cell-based, rat
# Protocol: as §1
# Nuclear Extraction and Electrophoretic mobility shift assay. Nuclear extracts from cells (1×10^7 cells) were prepared using previously published method (Dignam et al., 1983) with slight modification. Cells were harvested, washed twice with ice-cold TBS, and lysed in 400 μl of buffer A containing, 10 mM KCl, 2 mM MgCl2, 0.5 mM dithiothreitol, protease inhibitor cocktail (Sigma), and 0.1% Nonidet P40 in 10 mM HEPES, pH 7.9 for 10 min on ice. Following centrifugation at 5,000×g for 10 min, the pelleted nuclei were washed with buffer A without Nonidet P40, and re-suspended in 40 μl of buffer B containing 25% (v/v) glycerol, 0.42 M NaCl, 1.5 mM MgCl2, 0.2 mM EDTA, 0.5 mM dithiothreitol, and Complete™ protease inhibitor cocktail (Roche) in 20 mM HEPES, pH7.9 for 30 min on ice. The lysates were centrifuged at 15,000×g for 15 min and the supernatants containing the nuclear proteins were stored at −70° C. until use. Ten μg of nuclear proteins was used for the electrophoretic mobility shift assay for detection of AP-1, NFκB, and C/EBP DNA binding activities. DNA-protein binding reactions were carried out at room temperature for 20 min in 10 mM Trizma base (pH 7.9), 50 mM NaCl, 5 mM MgCl2, 1 mM EDTA, 1 mM dithiothreitol, 1 μg poly (dl-dC), 5% (v/v) glycerol, and approximately 0.3 pmol of NFκB (Santa Cruz Biotech) labeled with DIG-ddUTP using terminal deoxynucleotidyl transferase (Roche). Protein-DNA complexes were resolved from protein-free DNA in 5% polyacrylamide gels at room temperature in 50 mM Tris, pH 8.3, 0.38 M glycine, and 2 mM EDTA, and electroblotted onto positively charged nylon membranes. The chemiluminescence detection method for DIG-labeled probes is identical to the method described for the non-isotopic northern blot analysis in the preceding.
# Transient Transfections and Reporter Gene Assay. 3×10^5 cells/well were cultured in 6-well plates for one day before the transfection. Transfection was performed with plasmid concentration constant (2.5 μg/transfection) and 8 μl of Fugene transfection reagent (Roche Molecular Biochemicals). One day after transfection, the cells were placed in serum free media for overnight. Following appropriate treatment, the cells were washed with phosphate buffered saline (PBS), scrapped, and then resuspended with 100 μl of lysis buffer (40 mM of Tricine pH 7.8, 50 mM of NaCl, 2 mM of EDTA, 1 mM of MgSO4, 5 mM of dithiothreitol, and 1% of Triton X-100). After incubation in room temperature for 15 min with occasional vortexing, the samples were centrifuged. […]
# iNOS [1] = experiment: LPS/IFN-induced NO production and iNOS expression in C6 glioma cells; format: cell-based, rat; settings: exogenous glycosphingolipid with D-PDMP
# Protocol: C6 rat glioma cells obtained from ATCC were maintained in Dulbecco's modified Eagle's medium (DMEM) (GIBCO, CA) containing 10% fetal bovine serum (FBS) (GIBCO) and 10 ? g/ml gentamicin. All the cultured cells were maintained at 37° C. in 5% CO2/95% air. At 80% confluency, the cells were incubated with serum free DMEM medium for 24 h prior to the incubation with LPS/IFN ? and other chemicals. Assay for NO production. Cells were cultured in 12-well plastic tissue culture plates. After the appropriate treatment, production of NO was determined by an assay of the culture supernatant for nitrite (Green et al., 1982). Briefly, 100 μl of culture supernatant was allowed to react with 100 μl of Griess reagent. The optical density of the assay samples was measured spectrophotometrically at 570 nm. Nitrite concentrations were calculated from a standard curve derived from the reaction of NaNO2 in fresh media. Western Blot Analysis. […] The protein concentration of samples was determined with the detergent compatible protein assay reagent (Bio-Rad Laboratories, CA) using bovine serum albumin (BSA) as the standard. Sample was boiled for 3 min with 0.1 volumes of 10% O-mercaptoethanol and 0.5% bromophenol blue mix. Fifty μg of total cellular protein was resolved by electrophoresis in 8 or 12% polyacrylamide gels, electro-transferred to polyvinylidene difluoride (PVDF) filter and blocked with Tween 20 containing Tris-buffered saline [TBST; 10 mM Trizma base (pH 7.4), 1% Tween 20, and 150 mM NaCl] with 5% skim milk. After incubation with antiserum against iNOS (BD PharMingen, CA), or hRas (Upstate Biotechnology, CA), or phospho-specific MAPK (p42/44) (Signal Transduction), in PVDF buffer for 2 h at room temperature, the filters were washed 3 times with TBST buffer and then incubated with horseradish peroxidase conjugated anti-rabbit or mouse IgG for 1 h. The membranes were autoradiographed by using ECL-plus (Amersham Pharmacia Biotech) after washing with TBST buffer. RT-PCR amplification. […] PCR amplification was conducted in 25 ? l of reaction mixture with 1.0 ? l of cDNA, […] and under the manufacturer's Taq polymerase conditions (Takara, […] Shuzo Co. Ltd, Japan). The sequence of primers used for PCR amplification are as follows; iNOS, (Forward-[NT], Reverse-[NT]), GalT-2 (Forward-[NT], Reverse-[NT]), GAPDH (Forward-[NT], Reverse-[NT]).
# small GTPase Ras = experiment: Quantification of Ras activation (GST-Raf-1 Ras binding domain); format: cell-based, rat; settings: exogenous LacCer with D-PDMP
# Protocol: Quantification of Ras Activation. After stimulation, primary astrocytes in 6 well plates were washed with PBS and lysed in membrane lysis buffer (MLB; 0.5 ml of 25 mM HEPES, pH7.5, 150 mM NaCl, 1% Igepal CA-630, 0.25% sodium deoxycholate, 10% glycerol, 10 mM MgCl2, 1 mM EDTA, 25 mM NaF, 1 mM of sodium orthovanadate, and EDTA free Complete™ protease inhibitor cocktail). After centrifugation (5,000×g) at 4° C. for 5 min, supernatant was used for Ras activation assay. One hundred μg of supernatant was used for binding with agarose conjugated Ras-binding domain (RBD) of Raf-1 which was expressed in BL21 (Invitrogen) Escherichia coli strain transformed by pGEX-2T-GST-RBD in the presence of 0.1 mM of IPTG as described previously (Herrmann et al., 1995). The binding reaction was performed at 4° C. for 30 min in MLB. Following washing with MLB three times, Ras-RBD complex were denatured by adding of 2×SDS sample buffer. Ras protein was identified by western immunoblot analysis with Ras antibodies from Upstate Biotechnology.
# iNOS [2] = experiment: LPS/IFN-induced NO production and iNOS gene expression in primary astrocytes; format: cell-based, rat
# iNOS [3] = experiment: LPS-induced iNOS expression and iNOS promoter activity in primary astrocytes (AICAR); format: cell-based, rat; settings: GGPP 10 μM, FPP 10 μM, mevalonate 10 mM with AICAR 1 mM
# Protocol: Immunoblot Analysis: Cells were harvested in ice-cold lysis buffer (50 mM Tris-HCl, pH 7.4, containing 50 mM NaCl, 1 mM EDTA, 0.5 mM EGTA, 10% glycerol and protease inhibitor cocktail) and protein was estimated using Bradford reagent (Bio-Rad, USA). Fifty microgram of total protein/lane was separated by SDS-PAGE and blotted to nitrocellulose (Amersham Pharmacia Biotech). Blots were blocked for 1 h in 5% nonfat dry milk-TBS-0.1% Tween 20 and incubated overnight with primary antibody (1:1000) in 5% BSA-TBS-0.1% Tween 20 at 4° C. This was followed by incubation of 1 h with appropriate secondary peroxidase conjugated antibody (1:10,000, Sigma). Immunoreactivity was detected using the enhanced chemiluminescence detection method according to the manufacturer's instructions (Amersham Pharmacia Biotech) and subsequent exposure of the membrane to X-ray film. Antisense experiments: To decrease the levels of endogenous AMPK, astrocytes were pretreated for 48 h with 25 μm (of phosphothiorated antisense (AS) oligonucleotide ([NT]) directly against both the ? α1 and α2 ? subunits of AMPK (Culmsee et al., 2001) ? ? ? missense (MS) oligonucleotide ([NT]) was used in control cultures. Oligonucleotides were transfected with OligofectamineTM reagent as per manufacturer's instructions. Northern blot, gene array analysis and RT-PCR for cytokines expression: Total RNA was extracted with Trizol (Gibco) according to the manufacturer's protocol. Northern blot for iNOS was performed with 15 μg of RNA per reaction as described previously (Pahan et al., 1997). β-actin was used as control for RNA loading. Gene expression array for inflammatory cytokines (TNFα, IL-1β, IL-6 and IFN-γ) was used according to the manufacturer's protocol (Superarray). Signal quantitation was determined using imaging densitomter (Bio-Rad Lab, Hercules, Calif.). For RT-PCR, RNA was isolated from treated rat brain cerebral cortex by extracting in Trizol as above. cDNA was prepared from 5 μg of total RNA using poly dT as a primer and Moloney murine leukemia virus reverse transcriptase (Promega) as per manufacturer's instructions. 2 μl of cDNA was used to amplify the following products [given as product name, expected size, and forward (F) and reverse (R) primers used]: iNOS, 730 bp. ([NT]-1β, 623 bp. ([…]-α, 473 bp. ([…], 528 bp. […] Transcriptional assays: Primary astrocytes or microglial cell line (BV2) were transiently transfected with NF- ? B-or iNOS-luciferase reporter gene with ? -galactosidase in the presence or absence of dominant negative AMPKα2 or HA-IKK ? by lipofectamine-2000 (astrocytes) and lipofectamine-Plus (BV2, Invitrogen) according to the manufacturer instructions. pcDNA3 was used to normalize all groups to equal amounts of DNA. Luciferase activity was determined using a luciferase kit (Promega).
# [4] = cited from earlier work
compound,measurement,setting,value
lactosylceramide [LacCer],effect on D-PDMP inhibition of ERK 1/2 phosphorylation,ERK1/2,reversed
same,levels of phosphorylated IκB,NF-κB; LacCer added to D-PDMP,increased
same,effect on D-PDMP inhibition of NF-κB DNA binding activity,NF-κB; exogenous LacCer with D-PDMP,reversed
same,effect on D-PDMP inhibition of κB-repeat luciferase activity,NF-κB; exogenous LacCer with D-PDMP,effectively bypassed
same,effect on D-PDMP inhibition of NO production,iNOS [1],reversed
same,effect on D-PDMP inhibition of iNOS mRNA and protein expression,iNOS [1],reversed
same,effect on D-PDMP reduction of Ras activation,small GTPase Ras,fully reversed
same,effect on D-PDMP mediated inhibition of iNOS gene expression,iNOS [2]; LacCer 5 and 10 μM with D-PDMP 50 μM before LPS/IFN,blunted
same,effect on PD98059 inhibition of iNOS gene expression,iNOS [2]; exogenous LacCer with PD98059,no effect
same,effect on D-PDMP mediated inhibition of NO production,"iNOS [2]; glycosphingolipid 5 and 10 μM added with D-PDMP 50 μM, 0.5 hr before LPS/IFN, 24 hrs",blunted
"CC(C)=CCC/C(C)=C/CC/C(C)=C/CC/C(C)=C/COP(=O)(O)OP(=O)(O)O [GGPP, geranylgeranyl pyrophosphate]",effect on inhibitory effect of AICAR on LPS induced iNOS-luciferase activity,iNOS [3],did not reverse
"CCCCN1CC(O)C(O)C(O)C1CO [Miglustat, 1,5-(butylimino)-1,5-dideoxy-D-glucitol]",solubility in water,[4],soluble
"CC(C)=CCC/C(C)=C/CC/C(C)=C/COP(=O)(O)OP(=O)(O)O [FPP, farnesyl pyrophosphate]",effect on inhibitory effect of AICAR on LPS induced iNOS-luciferase activity,iNOS [3],did not reverse
CC(O)(CCO)CC(=O)O (centres unmarked) [mevalonate],effect on inhibitory effect of AICAR on LPS induced iNOS-luciferase activity,iNOS [3],did not reverse
